In patent US5543410A, “Pharmacological use of phthaloylhydrazide derivatives; combination and application thereof” (L.I.M.A.D. Limited, priority 1993, dated 1996):

System: toxins

Nc1cccc2c(=O)[nH][nH]c(=O)c12
time to therapeutic effect (after administration, acute phase): twenty to thirty | injections sufficient for complete elimination of pathological indications (within a one-day period): one or two
